Source: patent US20070282004A1, “Use of a Cyclopentenone Prostaglandin for Delaying for the Onset and/or Preventing the Continuation of Labour” (Imperial College Innovations Limited, priority 2003, published 2007)
Entries after “also recorded” stand apart in the source; their conditions may differ.

Experiments:
NF-κB [1] = biological target: T1, NF-κB (Homo sapiens, UniProt P19838+Q04206); assay: EMSA of NF-κB DNA binding in nuclear extracts of treated myometrial cells; format: cell-based; conditions: for IL-1β-induced NF-κB DNA binding (EMSA): myometrial cells, treated 2 h, then IL-1β 15 min
T1 construct: nuclear protein extracts from myometrial cells; endogenous in cells; host or cells: primary human myometrial cells (term, passage 1-4)
Description: (§1) Myometrial tissue was collected at term from the upper margin of uterine incision at the time of lower segment caesarean section either prior to the onset of labour (L−) or […] (L+). L+ samples were collected by Dr Mark Johnson and Dr S Soorrana at Chelsea & Westminster Hospital. Myometrial tissue was dissected, rinsed in PBS, and digested in serum-free DMEM containing 15 mg/ml collagenase 1A (Sigma), 15 mg/ml collagenase X, and 50 mg/ml bovine serum albumin for 45 min at 37° C. The cell suspension was filtered through a cell strainer, centrifuged at 400 g for 5 min, and the pellet re-suspended and plated out in DMEM, 10% FCS (Helena BioScience), 1% L-glutainine, 1% penicillin-streptomycin. Cells were used between passage numbers 1-4.
(§2) Nuclear and cytosolic protein extracts were obtained from cultured amnion cells as described by Schreiber et al (1989). For nuclear/cytosolic fractionation, confluent cell monolayers were scraped and lysed using a buffer containing 10 mM HEPES, 10 mM KCl, 0.1 mM EDTA, 0.1 mM EGTA, 2 mM DTT, 1% (v/v) NP-40 and complete protease inhibitor tablets (CPIs, Roche), diluted to manufacturer's instructions. Cell lysates were incubated on ice for 10 min and NP-40 added to a final concentration of 1% (v/v). Lysates were vortexed for 10 secs and centrifuged for 30 secs at 4° C., 12000 g. The supernatants were retained as the cytosolic protein extracts. The pellets were resuspended in buffer containing 10 mM HEPES, 10 mM KCl, 0.1 mM EDTA, 0.1 mM EGTA, 2 mM DTT, 400 mM NaCl, 1% NP-40 (v/v) and CPIs. Samples were shaken vigorously for 15 min in an ice bath. The nuclear protein extracts were obtained in the supernatant following a 5 min centrifugation at 4° C., 12000 g.
Sense and antisense strands (175 nmole/ml each) were incubated in annealing buffer (10 mM Tris-HCl pH7.5, 100 mM NaCl, 1 mM EDTA) for 10 min at 65° C., and allowed to cool at room temperature for 2 h. 3.5 pmole double-stranded oligonucleotides were end-labelled with 0.37 MBq ^32P(γATP) by incubating for 30 min at 37° C. with T4 polynucleotide kinase. Labelled oligonucleotides were recovered by centrifugation at 3000 rpm for 2 min through MicroSpin G-25 or G-50 sephadex columns (Amersham Biosciences).
3-5 μg protein extracts were incubated on ice for 1 h with non-radiolabelled non-specific oligonucleotide (poly(dI-dC) or Oct-1) in a binding buffer (20% (v/V) glycerol, 5 mM MgCl2, 2 mM EDTA, 50 mM Tris-HCl pH7.5, 250 mM NaCl, 2 mM DTT), followed by a 45 min incubation with 0.035 pmole ^32P(γ(ATP)-end labelled oligonucleotide probes:
Oct-1 or SP-1 consensus sequences were used as a controls for a NF-κB-specific effect. The resulting protein/DNA complexes were separated in a 4% acrylamide gel, the gel dried under vacuum at 80° C. and exposed to X-ray film. For supershift analysis, samples were incubated with 2 μg antibodies for 30 min on ice prior to incubation with oligonucleotides. Non-radio-labelled oligonucleotides were used at 100-fold molar excess for specific and non-specific competition for DNA binding. Reagents for EMSA were obtained from Promega Life Sciences, Delta House, Chilworth Research Centre, Southampton SO16 7NS, United Kingdom.

NF-κB [2] = assay: NF-κB-dependent luciferase reporter (κB.BG.Luc) in myometrial cells; format: cell-based, human; conditions: for IL-1β-induced NF-κB transcriptional activity (κB.BG.Luc reporter): treated 2 h, IL-1β 1 ng/ml 6 h
Description: Myometrial cells were transiently transfected with the NFκB-dependent reporter construct κB.BG.Luc, treated with 15dPGJ2 or vehicle for 2 h, ±IL-1β (1 ng/ml) for 6 h. […] Values are normalised for b-gal reporter activity. (NS=nonstimulated).
Myometrial cells were transfected with […] κB.BG.Luc reporter and 200 ng PPAR-γ expression vector and treated with 15d-PGJ2 for 2 h followed by IL-1β (1 ng/ml) for 6 h. Values are normalised for β-galactosidase reporter activity. (NS=nonstimulated).
as §1
pGL3.6κB.BG.luc: a NF-κB-dependent reporter construct with 6 copies of the NF-κB binding site.
Cells were co-transfected with the renilla vector pRL-CMV or β-galactosidase vector pCH110 as internal controls for transfection efficiencies.

NF-κB [3] = assay: Western immunoblot of p65, p50, IκB in myometrial cell extracts; format: cell-based, human; conditions: myometrial cells; for IL-1β-induced p65 nuclear translocation: treated 2 h
Description: Western immunoblots of nuclear or cytosolic protein extracts from (A) myometrial cells, (B) L− amnion cells, and (C) L+ amnion cells treated with 15dPGJ2 or vehicle for 2 h±IL-1β stimulation (15 min). Blots probed with antibodies against p65, p50 or IκBα.
Western immunoblots of nuclear or cytosolic protein extracts from myometrial cells treated with PGA1 or vehicle for 2 h followed by IL-1β stimulation (15 min). Blots probed with antibodies against p65 or IκBa.
Western immunoblots of cytosolic extracts from myometrial cells (A) treated with 15dPGJ2 for 2h±IL1b for 15 min; probed for IKK, and (B) treated with […] 15dPGJ2, […] MG132 or vehicle for 2 h, ±IL-1β for 15 min; probed for IκBα.
(A) NF-κB-DNA binding was measured by EMSA in nuclear protein extracts from myometrial cells pre-treated with vehicle, 15d-PGJ2 or PGA1 for 2 h, followed by stimulation with IL-1β (1 ng/ml) for 15 min. Antibodies against p50 and p65 were used for supershift analysis. (B) Myometrial cells were transiently transfected with a NF-κB-LUC reporter and a β-gal reporter plasmid, pre-treated with vehicle or PGA1 for 2 h, and stimulated with IL-1β (1 ng/ml) for 6 h. Luciferase activity was normalized for β-gal reporter readout. Values are presented as the mean±SEM obtained for each treatment done in triplicate. Western blot analysis of nuclear p65 and p50 expression in myometrial cells treated with (C) PGA1 or (D) 15d-PGJ2 for 2 h, followed by stimulation with IL-1β (1 ng/ml) for 15 min. (E) Western blot analysis of whole cell lysates from myometrial cells treated with 15d-PGJ2 or 9,10-dihydro-15d-PGJ2 for 2 h, followed by stimulation with IL-1β (1 ng/ml) for 15 min. Membranes were probed with antibodies against p65 and Ser 536-phosphorylated p65.
as §1, §2
Protein samples (20-70 μg) were mixed with Laemmli sample buffer (1:1) containing β-mercaptoethanol (5%), and boiled for 5 min. Proteins were then separated by SDS-PAGE (12-14% gels) and transferred onto PVDF membrane (Amersham Pharmacia Biotech). The membranes were blocked overnight in 5% non-fat milk prepared in PBS-T buffer, at 4° C. The blots were incubated with the primary antibody in 1% non-fat milk in PBS-T buffer for 1 h, and washed three times (10 min each) in PBS-T with vigorous shaking. […]

T1 sequence (Q04206 whole entry): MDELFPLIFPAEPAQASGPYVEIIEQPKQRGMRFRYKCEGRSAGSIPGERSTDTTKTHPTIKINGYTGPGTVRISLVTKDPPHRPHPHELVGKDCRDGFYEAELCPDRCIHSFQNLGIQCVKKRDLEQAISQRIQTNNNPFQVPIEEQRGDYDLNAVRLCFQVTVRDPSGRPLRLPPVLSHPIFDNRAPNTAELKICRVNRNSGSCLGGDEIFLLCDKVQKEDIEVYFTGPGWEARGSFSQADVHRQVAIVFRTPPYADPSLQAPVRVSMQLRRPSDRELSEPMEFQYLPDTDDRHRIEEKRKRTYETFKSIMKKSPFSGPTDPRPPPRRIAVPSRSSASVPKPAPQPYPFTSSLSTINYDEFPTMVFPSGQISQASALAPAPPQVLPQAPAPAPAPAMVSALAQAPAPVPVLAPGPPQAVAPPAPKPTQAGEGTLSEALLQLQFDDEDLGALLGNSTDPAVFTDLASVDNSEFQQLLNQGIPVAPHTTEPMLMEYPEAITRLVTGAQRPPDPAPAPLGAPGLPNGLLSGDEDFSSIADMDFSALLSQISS
T1 sequence (P19838 1-433 limits assumed): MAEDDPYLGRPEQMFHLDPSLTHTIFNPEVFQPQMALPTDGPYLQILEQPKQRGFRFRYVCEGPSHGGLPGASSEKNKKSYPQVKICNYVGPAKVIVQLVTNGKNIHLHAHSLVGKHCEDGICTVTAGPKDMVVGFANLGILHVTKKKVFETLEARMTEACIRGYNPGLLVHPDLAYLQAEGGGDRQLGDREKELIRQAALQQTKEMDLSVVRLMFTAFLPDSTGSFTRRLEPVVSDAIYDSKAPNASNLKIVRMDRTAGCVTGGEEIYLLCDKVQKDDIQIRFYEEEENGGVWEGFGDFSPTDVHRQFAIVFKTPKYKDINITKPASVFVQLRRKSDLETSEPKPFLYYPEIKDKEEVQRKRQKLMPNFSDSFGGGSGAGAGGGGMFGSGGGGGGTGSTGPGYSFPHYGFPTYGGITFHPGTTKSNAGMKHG

SMILES	IL-1β-induced NF-κB DNA binding (EMSA) (NF-κB [1])	IL-1β-induced NF-κB transcriptional activity (κB.BG.Luc reporter) (NF-κB [2])	IL-1β-induced IκBα degradation (NF-κB [3])	Reproduction of the effects of 15d-PGJ2 on NF-κB (incl. Ser 536-phosphorylated p65) (NF-κB [3]; 2 h, IL-1β 15 min, similar in amnion epithelial cells)	IL-1β-induced p65 nuclear translocation (NF-κB [3]; IL-1β 15 min)	Protein binding to a consensus Oct-1 or Sp-1 probe (control) (NF-κB [1]; myometrial and amnion cells)	IL-1β-induced NF-κB DNA binding (EMSA) (NF-κB [1]; listed as 15dPGJ2)	Effect of PPARγ overexpression on 15d-PGJ2 inhibition of NF-κB transcriptional activity (NF-κB [2]; 200 ng PPAR-γ expression vector)	IL-1β-induced NF-κB transcriptional activity (κB.BG.Luc reporter) (NF-κB [2]; listed as 15dPGJ2)	IL-1β-induced IκBβ degradation (NF-κB [3])	IL-1β-induced p50 phosphorylation (NF-κB [3])	IκBα phosphorylation (NF-κB [3])	Accumulation of phosphorylated IκBα (NF-κB [3]; 2 h, IL-1β 15 min)	IL-1β-induced p65 nuclear translocation (NF-κB [3]; IL-1β 15 min, listed as 15dPGJ2)
CCCCC[C@H](O)/C=C/[C@H]1C=CC(=O)[C@@H]1CCCCCCC(=O)O [PGA1, prostaglandin A1]	inhibition	reduced to basal levels	inhibition	shares the effect of 15d-PGJ2	inhibition; also recorded: inhibited	–	–	–	–	–	–	–	–	–
CCCCCC=CC=C1C(=O)C=C[C@@H]1CC=CCCCC(=O)O [15d-PGJ2, 15-deoxy-Δ^12,14prostaglandin J2]	inhibited IL1-β-induced NF-κB DNA binding in a dose-dependent manner	reducing reporter activity to basal levels; also recorded: inhibited	inhibition	–	inhibited	unaffected	inhibition	does not potentiate	inhibition	inhibition	inhibition	inhibits	not detected	inhibition
